Experimental data taken from US12453740B2, “Nucleic acids for cell recognition and integration” (Emory University, priority 2018, dated 2025).

Experiments:
[1] = tested on: chromosomes of plasma cells; test: Incorporation of labeled ctDNA into chromosomes with NHEJ, PARP and integrase inhibitors (Example 6); assay type: cell-based, human; conditions: DNA-PKCS inhibitor I 200 nM; KU-55933; raltegravir 30 nM; NU1025 200 nM
Method: For further evaluation, chromosome spreads from MM and lung cancer cell lines were cultured with covalently labeled ctDNA obtained from patients with MM.

[2] = tested on: MM (MM1S), PC (ASPC-1), and CC (HCT 116) cell lines; test: ctDNA integration with NHEJ, alternative pathway and transposase inhibitors (Example 25); assay type: cell-based, human; conditions: 2 hours pretreatment; DNA-PKCS inhibitor I 30 μM, KU-55933 10 μM, raltegravir 100 nM; compared to control or NU1025 200 μM
Method: About 10^6 MM1s, PANC1 and HCT-116 cells were treated for 2 hours with inhibitors of the non-homologous end join (NHEJ) repair system such as KU-55933 (ATM inhibitor, 10 μM) and DNA-PKCS inhibitor I, (30 μM), alternative repair pathway such as a poly ADP ribose polymerase inhibitor NU1025 (PARP, 200 μM) and an integrase/transposase inhibitor (raltegravir, 100 nM). After treatment with inhibitors, rhodamine-labeled ctDNA construct was added to the culture media for 24 hours. Cells were then arrested, and chromosome spreads were obtained as noted above. Integration site counts per cell were obtained after counting a minimum of 20 metaphases (FIG. 32).
Transposable elements (TEs) can play an important role in the mechanism of HGT observed in prokaryotes and few cases of eukaryotes (insects and plants). Thus, it was investigated whether inhibition of transposable elements could reduce or prevent ctDNA integration into chromatids. To that end, cells were treated for 2 hours with raltegravir, a transposase inhibitor, before the addition of ctDNA into culture media. For controls, inhibitors of ATM (KU-55933), DNPkc (DNA-PKCS inhibitor I) and PARP (NU1025) were used. […]

Compound | Incorporation of labeled ctDNA into chromosomes [1] | integration of ctDNA (rhodamine bands into the chromosomes) [2]
Cc1nc2c(O)cccc2c(=O)[nH]1 [NU1025] | less so | –
O=c1cc(-c2cccc3c2Sc2ccccc2S3)oc(N2CCOCC2)c1 [KU-55933] | reduced significantly | significantly reduced
Cc1nnc(C(=O)NC(C)(C)c2nc(C(=O)NCc3ccc(F)cc3)c(O)c(=O)n2C)o1 [raltegravir] | reduced significantly | significantly reduced
